Usually inhibition stands for the relative decrease from the control value, in per cent. What is called IC50 is the midpoint of a concentration-inhibition curve. Usually melting point stands for the temperature of the solid-liquid transition.

We go through twelve molecules from patent US6423689B1, “Peptidyl calcium channel blockers” (Warner-Lambert Company, priority 1997, dated 2002).

For data set [1], the target named is T1, N-type Ca2+ channels in IMR-32 cells (Homo sapiens, UniProt Q00975).
T1 construct: host or cells: IMR-32 cells, differentiated with dibutyryl cAMP and bromodeoxyuridine
T1 sequence (Q00975 whole entry): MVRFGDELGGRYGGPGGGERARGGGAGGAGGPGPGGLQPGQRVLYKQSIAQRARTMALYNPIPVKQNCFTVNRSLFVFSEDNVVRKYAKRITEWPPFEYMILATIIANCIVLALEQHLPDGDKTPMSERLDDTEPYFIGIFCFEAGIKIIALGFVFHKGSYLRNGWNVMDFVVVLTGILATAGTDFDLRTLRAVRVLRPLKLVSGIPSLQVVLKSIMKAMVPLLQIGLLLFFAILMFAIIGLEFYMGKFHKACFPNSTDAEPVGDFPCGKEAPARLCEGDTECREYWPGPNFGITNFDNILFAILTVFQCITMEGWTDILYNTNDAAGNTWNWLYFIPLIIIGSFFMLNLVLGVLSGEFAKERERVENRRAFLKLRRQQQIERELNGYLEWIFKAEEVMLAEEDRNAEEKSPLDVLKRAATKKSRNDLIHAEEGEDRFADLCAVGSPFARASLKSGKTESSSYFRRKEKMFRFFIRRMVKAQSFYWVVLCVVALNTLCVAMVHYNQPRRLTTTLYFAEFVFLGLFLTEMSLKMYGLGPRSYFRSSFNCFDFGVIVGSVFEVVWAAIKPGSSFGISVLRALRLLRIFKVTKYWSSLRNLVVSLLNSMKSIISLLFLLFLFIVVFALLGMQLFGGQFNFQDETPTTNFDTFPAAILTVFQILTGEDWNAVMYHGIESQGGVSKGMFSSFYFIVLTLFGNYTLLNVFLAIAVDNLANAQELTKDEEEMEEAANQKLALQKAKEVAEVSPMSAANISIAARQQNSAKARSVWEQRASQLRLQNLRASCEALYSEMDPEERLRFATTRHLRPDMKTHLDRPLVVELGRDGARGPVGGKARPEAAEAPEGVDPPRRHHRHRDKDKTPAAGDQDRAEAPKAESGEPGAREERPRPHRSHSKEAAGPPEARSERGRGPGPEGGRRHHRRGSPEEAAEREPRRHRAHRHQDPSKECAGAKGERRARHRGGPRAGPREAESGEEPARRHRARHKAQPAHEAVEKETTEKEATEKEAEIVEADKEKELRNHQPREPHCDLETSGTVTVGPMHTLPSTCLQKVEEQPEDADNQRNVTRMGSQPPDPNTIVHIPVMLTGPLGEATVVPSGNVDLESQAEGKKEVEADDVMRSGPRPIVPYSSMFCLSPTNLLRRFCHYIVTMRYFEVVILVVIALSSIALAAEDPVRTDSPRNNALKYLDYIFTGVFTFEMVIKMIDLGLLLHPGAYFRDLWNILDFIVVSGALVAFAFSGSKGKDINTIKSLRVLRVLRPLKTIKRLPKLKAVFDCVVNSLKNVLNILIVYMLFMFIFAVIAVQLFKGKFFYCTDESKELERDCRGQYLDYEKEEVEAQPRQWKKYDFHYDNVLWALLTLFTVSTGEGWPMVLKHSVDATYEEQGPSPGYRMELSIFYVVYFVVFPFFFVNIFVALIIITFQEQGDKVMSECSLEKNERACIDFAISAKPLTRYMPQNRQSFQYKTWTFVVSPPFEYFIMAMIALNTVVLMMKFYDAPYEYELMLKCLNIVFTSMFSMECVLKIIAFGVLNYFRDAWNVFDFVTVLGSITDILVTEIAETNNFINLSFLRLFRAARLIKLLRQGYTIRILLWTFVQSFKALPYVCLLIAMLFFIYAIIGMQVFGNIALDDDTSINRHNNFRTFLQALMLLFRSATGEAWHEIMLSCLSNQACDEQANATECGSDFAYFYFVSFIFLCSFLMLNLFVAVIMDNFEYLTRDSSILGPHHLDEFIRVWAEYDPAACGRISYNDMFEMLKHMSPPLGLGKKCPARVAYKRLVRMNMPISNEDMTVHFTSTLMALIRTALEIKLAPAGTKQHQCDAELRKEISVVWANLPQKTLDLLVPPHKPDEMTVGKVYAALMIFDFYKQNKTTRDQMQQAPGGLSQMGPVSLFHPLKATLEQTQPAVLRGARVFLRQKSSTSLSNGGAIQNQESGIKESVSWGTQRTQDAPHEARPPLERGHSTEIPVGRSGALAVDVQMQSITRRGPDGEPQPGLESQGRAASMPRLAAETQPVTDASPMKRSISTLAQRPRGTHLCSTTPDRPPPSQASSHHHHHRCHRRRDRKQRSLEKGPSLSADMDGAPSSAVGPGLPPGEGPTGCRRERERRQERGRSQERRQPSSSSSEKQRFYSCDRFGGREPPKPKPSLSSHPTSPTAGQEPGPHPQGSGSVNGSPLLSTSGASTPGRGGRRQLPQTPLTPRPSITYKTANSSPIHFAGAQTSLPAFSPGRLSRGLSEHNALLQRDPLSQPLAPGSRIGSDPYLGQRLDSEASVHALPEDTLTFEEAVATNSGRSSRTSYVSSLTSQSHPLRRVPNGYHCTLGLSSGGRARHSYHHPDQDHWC
T1 sequence (P54289 25-956 partner limits assumed): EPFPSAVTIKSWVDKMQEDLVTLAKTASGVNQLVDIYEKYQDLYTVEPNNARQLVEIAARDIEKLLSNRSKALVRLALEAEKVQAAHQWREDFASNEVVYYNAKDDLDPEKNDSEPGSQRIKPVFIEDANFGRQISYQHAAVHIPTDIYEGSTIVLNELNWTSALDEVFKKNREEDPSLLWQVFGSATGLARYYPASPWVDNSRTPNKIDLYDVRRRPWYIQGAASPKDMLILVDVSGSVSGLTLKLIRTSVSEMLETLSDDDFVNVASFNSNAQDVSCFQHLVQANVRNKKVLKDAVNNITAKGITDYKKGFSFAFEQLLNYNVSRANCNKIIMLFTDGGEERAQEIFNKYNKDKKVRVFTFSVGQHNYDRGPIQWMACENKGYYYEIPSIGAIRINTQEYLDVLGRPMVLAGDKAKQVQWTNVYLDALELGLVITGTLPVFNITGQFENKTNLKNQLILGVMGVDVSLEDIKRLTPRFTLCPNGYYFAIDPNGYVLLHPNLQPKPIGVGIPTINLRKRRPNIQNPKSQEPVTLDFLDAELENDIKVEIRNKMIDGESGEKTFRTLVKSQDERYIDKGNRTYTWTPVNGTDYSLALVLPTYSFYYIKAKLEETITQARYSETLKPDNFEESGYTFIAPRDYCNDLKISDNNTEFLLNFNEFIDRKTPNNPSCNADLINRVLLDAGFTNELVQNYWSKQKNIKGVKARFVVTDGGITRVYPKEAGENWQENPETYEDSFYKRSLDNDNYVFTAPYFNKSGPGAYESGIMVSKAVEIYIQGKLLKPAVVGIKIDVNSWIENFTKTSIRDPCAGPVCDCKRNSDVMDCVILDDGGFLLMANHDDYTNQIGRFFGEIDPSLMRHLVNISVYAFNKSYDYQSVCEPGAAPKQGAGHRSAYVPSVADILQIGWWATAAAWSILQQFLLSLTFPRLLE
T1 sequence (P54289 957-1103 partner limits assumed): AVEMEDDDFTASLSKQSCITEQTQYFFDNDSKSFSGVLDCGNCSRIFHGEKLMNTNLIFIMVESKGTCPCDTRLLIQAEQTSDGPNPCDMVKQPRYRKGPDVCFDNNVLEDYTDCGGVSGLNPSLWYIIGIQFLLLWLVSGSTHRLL
T1 sequence (P54284 whole entry partner): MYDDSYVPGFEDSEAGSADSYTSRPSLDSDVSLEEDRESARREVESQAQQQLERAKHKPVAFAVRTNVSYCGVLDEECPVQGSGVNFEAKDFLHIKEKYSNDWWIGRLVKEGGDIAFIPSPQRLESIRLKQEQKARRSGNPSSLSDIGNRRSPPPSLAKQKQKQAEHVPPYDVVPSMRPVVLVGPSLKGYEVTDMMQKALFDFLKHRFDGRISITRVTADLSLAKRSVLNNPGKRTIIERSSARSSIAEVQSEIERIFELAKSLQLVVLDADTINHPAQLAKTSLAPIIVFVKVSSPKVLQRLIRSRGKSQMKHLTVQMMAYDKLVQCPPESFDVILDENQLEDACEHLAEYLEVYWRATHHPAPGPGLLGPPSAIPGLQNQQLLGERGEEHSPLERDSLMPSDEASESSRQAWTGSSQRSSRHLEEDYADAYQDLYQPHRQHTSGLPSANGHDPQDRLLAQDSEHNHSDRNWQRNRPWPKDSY
Put plainly: Inhibition of N-type calcium flux in IMR-32 cells (Indo-1 fluorescence, nitrendipine present). The note with it: for inhibition at 1 µM / inhibition at 10 µM: IMR-32; for IC50: IMR-32 cells, 5 μM nitrendipine, K+ depolarization. It counts as cell-based. The method, boiled down:
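Differentiated IMR-32 cells (7–13 days) were loaded with 5 μM Indo-1 AM, preincubated with compound for 10 min at 30° C, and depolarized with KCl/CaCl2 stimulation solution, with 5 μM nitrendipine blocking L-channels. Peak-minus-basal 400/490 nm emission ratio was plotted against drug concentration, and IC50 came from four-parameter logistic fits.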
For orientation: A change in cytosolic calcium serves as a functional read-out for many receptors and channels.

Data set [2] deals with K+ channels in superior cervical ganglion (SCG) neurons. Put plainly: Whole-cell voltage clamp, K+ current in SCG neurons. It counts as cell-based, rat. The note with it: for IC50: read-out: Inhibition of K+ Current IC50. The protocol: (§1) Electrophysiological techniques were used to measure the effects of experimental compounds on voltage-gated Ca^2+, Na^+ and K^+ channels. […] Sodium and potassium channel currents were measured from acutely dissociated SCG neurons.
(§2) Dissociation of the neurons from the ganglia was accomplished using a 30 to 45 minute treatment in 0.25% trypsin, similar to methods outlined in Higgins, et al. [see Higgins D., et al. “Tissue culture of mammalian autonomic neurons.” In Banker G. and Goslin K. (Eds), Culturing Nerve Cells, Cambridge, Mass., MIT Press (1991)].
(§3) Ca^2+, Na^+ and K^+ channel currents in SCG neurons were measured using conventional single electrode whole-cell voltage-clamp techniques, outlined in Hamill, et al., (see Hamill O.P., et al. “Improved patch-clamp techniques for high resolution current recordings from cells and cell-free membrane patches”. Pflugers Arch. 1981;391:85-100) For Ca^2+ channel experiments, the external bathing solution contained tetraethylammonium chloride (100 mM), choline chloride (52 mM), NaCl (15 mM), HEPES (10 mM), glucose (5.6 mM), CaCl2 (2 mM), and MgCl2 (0.8 mM) pH 7.35 with KOH; with the internal pipette solution containing cesium methane sulfonate (140 mM), EGTA (10 mM), and HEPES (10 mM), supplemented with 5 mM Mg^2+ -ATP on the day of the experiment, pH 7.4 with CsOH. For Na^+ and K^+ channel experiments, the external bathing solution contained NaCl (150 mM), KCl (5 mM), MgCl2 (1.1 mM), CaCl2 (2.6 mM), Na-HEPES (10 mM), and glucose (10 mM), pH 7.4; with the internal pipette solution containing KCl (80 mM), K-gluconate (50 mM), HEPES (10 mM), and EGTA (10 mM), pH 7.4 with KOH. Experimental compounds were diluted into the external solution and applied to the soma of cells by local perfusion from large diameter (20-50 μm) glass micropipettes or from a U-tube applicator.
(§4) For Na^+ and K^+ channel currents, following the determination of the I/V relationship for each cell in control solution, currents were evoked from a holding potential between −65 and −55 mV by stepping every 10 sec to a test potential of either 0 mV for Na^+ or +50 mV for K^+ current for a duration of 35 msec. Peak inward current was measured for Na^+ and sustained current for K^+ channel currents. […] Test compounds were applied until steady-state block was achieved. Data were expressed as percent inhibition of control amplitudes for Na^+ and K^+ channel currents.

In data set [3] the target is T2, N-type Ca2+ channels in superior cervical ganglion (SCG) neurons (Rattus norvegicus, UniProt Q02294).
T2 construct: from tissue
In words: Whole-cell voltage clamp, N-type Ca2+ current in SCG neurons. It counts as cell-based. The note with it: for IC50: read-out: Inhibition of N-type Ca2+ Current IC50. The protocol: as §1, §2, §3
After obtaining a whole-cell recording, Ca^2+ channels were elicited by stepping to test potentials between −40 and +20 mV for 120 msec from the holding potential of −90 mV to determine if the amplitude of the current and clamp control were adequate for evaluation of drug effects. Ca^2+ channel currents were evoked by stepping from a holding potentials between −65 mV and −−55 mV to a test potential of +20 mV for 150 msec every 40 seconds. The amplitude of the Ca^2+ channel currents were compared before and during drug application and drug effects expressed as percent inhibition of the amplitude of control currents.

The subject of data set [4] is Na+ channels in superior cervical ganglion (SCG) neurons. Put plainly: Whole-cell voltage clamp, Na+ current in SCG neurons. It counts as cell-based, rat. The note with it: for IC50: read-out: Inhibition of Na+ Current IC50. How it is done:
as §1, §2, §3, §4

On to `CC(C)C[C@H](NC(=O)N1CCN(c2ccccc2)CC1)C(=O)N[C@@H](Cc1ccc(OCc2ccccc2)cc1)C(=O)OC(C)(C)C` [Example 10, [S-(R*,R*)]-3-(4-Benzyloxy-phenyl)-2-{4-methyl-2-[(4-phenyl-piperazine-1-carbonyl)-amino]-pentanoylamino}-propionic acid tert-butyl ester], for which the melting point lay in the range of 67 to 69 °C. Moreover, in data set [1], the inhibition at 1 µM turned out to be 46%, the inhibition at 10 µM turned out to be 73% and the IC50 came to 2.1 µM.
With `COc1ccc(C[C@H](NC(=O)[C@H](CC(C)C)NC(=O)N2CCCCCC2)C(=O)OC(C)(C)C)cc1` [Example 13, [S-(R*,R*)]-2-{2-[(Azepane-1-carbonyl)-amino]-4-methyl-pentanoylamino}-3-(4-methoxy-phenyl)-propionic acid tert-butyl ester], the melting point lay in the range of 105 to 106 °C. For the same molecule, in data set [1], the inhibition at 1 µM amounted to 40%, the inhibition at 10 µM turned out to be 86% and the IC50 stood at 1.7 µM.
For `CC(C)C[C@H](NC(=O)N1CCCCCC1)C(=O)N[C@@H](Cc1ccc(OCC2CCCCC2)cc1)C(=O)OC(C)(C)C` [Example 30, [S-(R*,R*)]-2-{2-[(Azepane-1-carbonyl)-amino]-4-methyl-pentanoylamino}-3-(4-cyclohexylmethoxy-phenyl)-propionic acid tert-butyl ester], the “Inhibition of K+ Current, % Inhibition at 10 μM” value in data set [2] was 8%. Further, in data set [3] (10 μM), the inhibition at 10 µM is 38%. In addition, in data set [1], the inhibition at 1 µM was found to be 56%, the inhibition at 10 µM stood at 83% and the IC50 turned out to be 0.63 µM. For the same molecule, the “Inhibition of Na+ Current, % Inhibition at 10 μM” value in data set [4] is 19%.
Turning to `CC(C)C[C@H](NC(=O)N1CCCCCC1)C(=O)N[C@@H](Cc1ccc(OCc2cccnc2)cc1)C(=O)OC(C)(C)C` [Example 31, [S-(R*,R*)]-2-{2-[(Azepane-1-carbonyl)-amino]-4-methyl-pentanoylamino}-3-[4-(pyridin-3-ylmethoxy)-phenyl]-propionic acid tert-butyl ester], the “Inhibition of K+ Current, % Inhibition at 10 μM” value in data set [2] is on record as 41%. For the same molecule, the IC50 was found to be 12.4 µM in data set [2], 3.34 µM in data set [3], 1.85 µM in data set [1] and 185 µM in data set [4]. The inhibition at 10 µM came out at 68% in data set [3] (10 μM) and 85% in data set [1]. Moreover, the inhibition at 1 µM in data set [1] worked out at 28%. In addition, the “Inhibition of Na+ Current, % Inhibition at 10 μM” value in data set [4] was determined as 21%.
For the molecule `CC(C)(C)C[C@H](NC(=O)N1CCCCCC1)C(=O)N[C@@H](Cc1ccc(OCc2ccccc2)cc1)C(=O)NCCN1CCCCC1` [Example 159, [S-(R*,R*)]-Azepane-1-carboxylic acid {1-[2-(4-benzyloxy-phenyl)-1-(2-piperidin-1-ylethylcarbamoyl)-ethylcarbamoyl]-3,3-dimethyl-butyl}-amide], the “Inhibition of K+ Current, % Inhibition at 10 μM” value in data set [2] came to 46%. For the same molecule, testing at 10 µM in data set [3] (10 μM) gave an inhibition of 28%. In data set [1], the IC50 is 0.83 µM. The “Inhibition of Na+ Current, % Inhibition at 10 μM” value in data set [4] was determined as 30%.
On the same counts, the results for `O=C(NCCN1CCCCC1)[C@H](Cc1ccc(OCc2ccccc2)cc1)NC(=O)[C@H](CC1CCCCC1)NC(=O)N1CCCCCC1` [Example 162, [S-(R*,R*)]-Azepane-1-carboxylic acid {1-[2-(4-benzyloxy-phenyl)-1-(2-piperidin-1-ylethylcarbamoyl)-ethylcarbamoyl]-2-cyclohexyl-ethyl}-amide] are 40%, 47%, 0.96 µM and 32%.
On to `CC(C)C[C@H](NC(=O)N1CCCCCC1)C(=O)N[C@@H](Cc1ccc(OCc2ccccc2)cc1)C(=O)NCCO` [Example 165, [S-(R*,R*)]-Azepane-1-carboxylic acid {1-[2-(4-benzyloxy-phenyl)-1-(2-hydroxy-ethylcarbamoyl)-ethylcarbamoyl]-3-methyl-butyl}-amide], for which the “Inhibition of K+ Current, % Inhibition at 10 μM” value in data set [2] was 86%. In data set [3] (10 μM), this molecule had an inhibition at 10 µM of 84%. In addition, the IC50 is 2.33 µM in data set [3], 3.6 µM in data set [1] and 6.9 µM in data set [4]. In data set [4], the “Inhibition of Na+ Current, % Inhibition at 10 μM” value is reported as 46%.
For the molecule `CC(C)C[C@H](NC(=O)N1CCCCCC1)C(=O)N[C@@H](Cc1ccc(OCc2ccccc2)cc1)C(=O)N1CCCCC1` [Example 167, [S-(R*,R*)]-Azepane-1-carboxylic acid {1-[1-(4-benzyloxy-benzyl)-2-oxo-2-piperidin-1-ylethylcarbamoyl]-3-methyl-butyl}-amide], in data set [2], the “Inhibition of K+ Current, % Inhibition at 10 μM” value is given as 8%. This molecule also gave an inhibition at 10 µM in data set [3] (10 μM) of 4%. For the same molecule, in data set [1], the inhibition at 1 µM stood at 58% and the IC50 stood at 0.53 µM. Also, in data set [4], the “Inhibition of Na+ Current, % Inhibition at 10 μM” value is −2%.
With `CC(C)C[C@H](NC(=O)N1CCOCC1)C(=O)N[C@@H](Cc1ccc(OCc2ccccc2)cc1)C(=O)NCCN1CCCCC1` [Example 177, [S-(R*,R*)]-Morpholine-4-carboxylic acid {1-[2-(4-benzyloxy-phenyl)-1-(2-piperidin-1-ylethylcarbamoyl)-ethylcarbamoyl]-3-methyl-butyl}-amide], the “Inhibition of K+ Current, % Inhibition at 10 μM” value in data set [2] was determined as 68%. Also, at 10 µM the inhibition in data set [3] (10 μM) was 87%. In addition, the IC50 in data set [3] was 2.03 µM; in data set [1], 2.9 µM. In data set [4], the “Inhibition of Na+ Current, % Inhibition at 10 μM” value was 31%.
For `CC(C)C[C@H](NC(=O)N1CCCCCC1)C(=O)N[C@@H](Cc1ccc(OCc2ccccc2)cc1)C(=O)NCCCNC1CCCCC1` [Example 184, [S-(R*,R*)]-Azepane-1-carboxylic acid {1-[2-(4-benzyloxy-phenyl)-1-(3-cyclohexylamino-propylcarbamoyl)-ethylcarbamoyl]-3-methyl-butyl}-amide], in data set [2], the “Inhibition of K+ Current, % Inhibition at 10 μM” value is 89%. For the same molecule, the IC50 turned out to be 0.49 µM in data set [2], 1.19 µM in data set [3], 2.6 µM in data set [1] and 4.85 µM in data set [4]. The inhibition at 10 µM in data set [3] (10 μM) stood at 54%. Besides, in data set [4], the “Inhibition of Na+ Current, % Inhibition at 10 μM” value is reported as 82%.
With `CC(C)CC(NC(=O)N1CCCCCC1)C(=O)NC(Cc1ccc(OCc2ccccc2)cc1)C(=O)NC(C)C(C)C` (stereo not drawn) [Example 191, Azepane-1-carboxylic acid {1-[2-(4-benzyloxy-phenyl)-1-(1,2-dimethyl-propylcarbamoyl)-ethylcarbamoyl]-3-methyl-butyl}-amide], the “Inhibition of K+ Current, % Inhibition at 10 μM” value in data set [2] amounted to 64%. Besides, the IC50 in data set [2] was 5.7 µM; in data set [3] it was 4.37 µM; in data set [1] it was 0.72 µM; in data set [4], 42.3 µM. For the same molecule, in data set [3] (10 μM), the inhibition at 10 µM came to 61%. For the same molecule, the “Inhibition of Na+ Current, % Inhibition at 10 μM” value in data set [4] was found to be 38%.
As for `CC(C)CC(NC(=O)N1CCCCCC1)C(=O)NC(Cc1ccc(OCc2ccccc2)cc1)C(=O)NC(C)C(C)C` (stereo not drawn) [Example 192, Azepane-1-carboxylic acid {1-[2-(4-benzyloxy-phenyl)-1-(1,2-dimethylpropylcarbamoyl)-ethylcarbamoyl]-3-methyl-butyl}-amide], the “Inhibition of K+ Current, % Inhibition at 10 μM” value in data set [2] came out at 58%. Moreover, in data set [3] (10 μM), the “Inhibition of N-type Ca2+ Current, % Inhibition at 10 μM” value was 58%. In addition, the IC50 in data set [3] was found to be 2.84 µM; in data set [1] it was 0.92 µM. Further, the “Inhibition of Na+ Current, % Inhibition at 10 μM” value in data set [4] is given as 26%.
